Tests used:
[1] = tested on: genes involved in collagen fiber maturation; test: Gene-expression analysis, summary statement in words; assay type: cell-based, human; settings: result in words; fibroblasts, 0.01%, 24hrs
Method: (§1) Normal human dermal fibroblasts at passage 7 from a donor were cultured in DMEM with L-glutamine 2mM, Penicillin 50U/ml-Streptomycin 50ug/ml and 10% FCS in a 5% CO2 atmosphere at 37°C. After equilibration of cell in 1% FCS for 24hrs the respective peptides H-(beta-Ala)-Pro-Dab-NH-benzyl [CAS 823202-99-9], respectively N-palmitoyl-Gly-His-Lys [147732-56-7] / N-palmitoyl-Gly-Gln-Pro-Arg [221227-05-0] (2:1) diluted in growth medium to a concentration of 0.01% were added and the cells were incubated for an additional 24hrs. At the end of incubation cells were washed in PBS and immediately frozen at -80°C. Total RNA was extracted using NucleoSpin RNA Plus kit (Macherey-Nagel) according to supplier's instructions. cDNA was synthesized by reverse transcription of total RNA using Transcriptor Reverse Transcriptase (Roche). PCR was performed on a LightCycler device (Roche Molecular Systems Inc.) according to manufacturer's instructions. Raw data were analyzed using Microsoft Excel.

ADAMTS2 = test: Gene-expression analysis (PCR) in normal human dermal fibroblasts; assay type: cell-based; settings: peptide 0.01% in growth medium, timepoint 24hrs
Method: as §1

LOXL2 = test: as above; assay type: cell-based; settings: peptide 0.01% in growth medium, timepoint 24hrs
Method: as §1

PCOLCE = test: as above; assay type: cell-based; settings: peptide 0.01% in growth medium, timepoint 24hrs
Method: as §1

PLOD3 = test: as above; assay type: cell-based; settings: peptide 0.01% in growth medium, timepoint 24hrs
Method: as §1

With “N-palmitoyl-Gly-His-Lys [147732-56-7] / N-palmitoyl-Gly-Gln-Pro-Arg [221227-05-0] (2:1)” the “up-regulation of genes involved in collagen fiber maturation” value [1] was “only up-regulates LOXL2 and much less PLOD3”, the “gene expression ADAMTS2” value (ADAMTS2) was 105% and the “gene expression LOXL2” value (LOXL2) was 292%. For the same substance, the “gene expression PCOLCE” value (PCOLCE) was 94% and the “gene expression PLOD3” value (PLOD3) was 163%.
